{"source": "patent US10596169B2", "about": "“Cancer treatment with combination of plinabulin and taxane” (BeyondSpring Inc., priority 2013, dated 2020)", "tested_on": "MV522 human non-small cell lung tumor xenograph model", "assay": "Example 1: MV522 xenograft, NPI-2358 single agent and with docetaxel (TGI/TGD)", "format": "in vivo, athymic nu/nu mice", "settings": "for MDS day ± SD: endpoint 1.5 cm^3", "experimental": "In vivo evaluation of plinabulin (NPI-2358) as a single agent and in combination with docetaxel in the MV522 human non-small cell lung tumor xenograph model in athymic nu/nu mice\nThe objective of the example was to determine potential additive or synergistic effects of plinabulin in combination with docetaxel in the MV522 model by exploring the scheduling of the drug combination explored by administering one of the agents 2 hours after the first drug was given. Significant endpoints for this experiment included mean tumor growth inhibition (TGI) or regression, tumor growth delay (TGD) in large tumor, weight loss, and mortality.\nFemale nude mice (Hsd: Athymic Nude-Foxn1^nu) between 5 and 6 weeks of age weighing approximately 20 grams were obtained from Harlan, Inc. (Madison, Wis.). MV522 is a conventional human NSC metastatic lung tumor cell line (U.S. Pat. No. 7,700,615 or 7,629,380). Animals were injected subcutaneously (SC) with approximately 1×10^7 MV522 cells harvested from tissue culture. When tumors grew to approximately 105 cubic millimeters (mm^3) in size (3 days following implantation), animals were pair-matched by tumor size into treatment and control groups; each treatment group contained eight mice. Animals were ear-tagged and followed individually throughout the experiment.\nInitial doses were administered on Day 1 following pair-matching. The experiment was carried out as a tumor growth inhibition (TGI) and tumor growth delay (TGD) study. Group 1 endpoint was when tumor volume reached 1.2 cm^3 (TGI) and the treated groups endpoint was when each individual animal's tumor volume reached 1.5 cm^3 (TGD). […] To serve as negative controls, NPI-2358 vehicle and docetaxel vehicle were injected IP on a 2×WKLY×3 schedule and IV on a Q2D×3 schedule, respectively. Docetaxel was administered by intravenous (IV) injection via tail vein at 15 mg/kg once every other day for three treatments (Q2D×3) or at 25 mg/kg on a Q7D×3 schedule (every 7 day for three treatment). Docetaxel and docetaxel vehicle were administered two hours prior to NPI-2358 vehicle and NPI-2358, respectively, in Groups 7-9 and 12-14. For Groups 10, 11, 15, and 16, NPI-2358 was given two hours prior to docetaxel.\nMice were weighed and caliper tumor measurements taken. Tumor growth inhibition (TGI) values were calculated for each group containing treated animals using the formula below: […]\nAnimals experiencing complete tumor responses or animals experiencing technical or drug-related deaths were censored from final TGI calculations; however animals experiencing partial tumor responses were included in the final TGI calculations. […] TGI values for each treatment group are reported at study completion; these calculations are based on the final study day.\nThis arm of the study was ended on Day 74 at the sponsor's request. […] Upon TGD study completion, a Median Day of Sacrifice (MDS) was calculated for the control (C) and each treatment (T) group and used to determine tumor growth delay (T-C) using the following equations: MDS=Median [ΣIDS] T−C=MDSTreated−MDSControl\nWhere IDS (Individual Day of Sacrifice) is the day when each animal reached its tumor volume endpoint (1.5 cm^3); only animals reaching this endpoint were included in TGD calculations. Gross or net log10 cell kill for each treatment group was determined using the following equations: […]", "key": {"[1]": {"settings": "G7: docetaxel 15 mg/kg IV Q2Dx3 + NPI-2358 vehicle"}, "[2]": {"settings": "G12: docetaxel 25 mg/kg IV Q7Dx3 + NPI-2358 vehicle"}}, "note": "Marks after values point to notes of the source that are not given here."}
{"smiles": "CC(=O)O[C@@]12CO[C@@H]1C[C@H](O)[C@@]1(C)C(=O)[C@H](O)C3=C(C)[C@@H](OC(=O)[C@H](O)[C@@H](NC(=O)OC(C)(C)C)c4ccccc4)C[C@@](O)([C@@H](OC(=O)c4ccccc4)[C@H]21)C3(C)C", "note": "[Docetaxel, docetaxel]", "values": [{"measurement": "#CR (Day 25)", "setting": "[1]", "result": "0/0"}, {"measurement": "#CR (TGD study)", "setting": "[1]", "result": "0/0"}, {"measurement": "#LTS (long-term survivors)", "setting": "[1]", "result": 0}, {"measurement": "#PR (Day 25)", "setting": "[1]", "result": "0/0"}, {"measurement": "#PR (TGD study)", "setting": "[1]", "result": "0/0"}, {"measurement": "% TGI", "setting": "[1]", "result": 88, "unit": "%"}, {"measurement": "Final tumor volume (Day 25) mean ± SEM", "setting": "[1]", "result": "259 ± 45", "unit": "mm^3"}, {"measurement": "Log10 cell kill", "setting": "[1]", "result": 0.4}, {"measurement": "T-C (tumor growth delay)", "setting": "[1]", "result": 16}, {"measurement": "MDS day ± SD", "setting": "[1]", "result": "45 ± 9", "unit": "days"}, {"measurement": "#CR (Day 25)", "setting": "[2]", "result": 0}, {"measurement": "#CR (TGD study)", "setting": "[2]", "result": "0/0"}, {"measurement": "#LTS (long-term survivors)", "setting": "[2]", "result": 2}, {"measurement": "#PR (Day 25)", "setting": "[2]", "result": 8}, {"measurement": "#PR (TGD study)", "setting": "[2]", "result": "0/0"}, {"measurement": "% TR (Day 25)", "setting": "[2]", "result": 58, "unit": "%"}, {"measurement": "Activity rating", "setting": "[2]", "result": "+ (1.0-1.9)"}, {"measurement": "Final tumor volume (Day 25) mean ± SEM", "setting": "[2]", "result": "43 ± 4", "unit": "mm^3"}, {"measurement": "Log10 cell kill", "setting": "[2]", "result": 1.0}, {"measurement": "T-C (tumor growth delay)", "setting": "[2]", "result": 39}, {"measurement": "MDS day ± SD", "setting": "[2]", "result": "68 ± 6", "unit": "days"}, {"measurement": "% TGI", "setting": "G12: docetaxel 25 mg/kg IV Q7Dx3 + NPI-2358 vehicle, value includes tumors with PR", "result": "107^† %"}, {"measurement": "Tumor volume / tumor burden compared to vehicle control", "setting": "single agent, Example 1", "result": "strong decrease in tumor burden"}]}
